Oligonucleotides are written 5' to 3', each unit as a sugar letter and its base; * is a phosphorothioate linkage, no mark a phosphodiester; rarer units and linkages stand in square brackets, end groups in braces. Plain capitals give the bases only. d = 2'-deoxy (DNA); r = 2'-OH (RNA)
Also: test concentration or dose not given here.

The series deals with DENND5A. Nature of the series: reporter assay of Huesken 2005. Conditions: siRNA. Background: Reporter assays use an easily measured gene product as a stand-in for the process of interest.
“sense rCrCrUrUrArUrGrGrUrCrCrCrArCrCrUrGrUrUdTdT / antisense rArArCrArGrGrUrGrGrGrArCrCrArUrArArGrGdCdT” yielded a normalised inhibition (eCFP-eYFP dual reporter) of 62.5%.
“sense rCrUrArUrCrArCrCrUrCrCrUrGrUrCrUrUrUrCdTdT / antisense rGrArArArGrArCrArGrGrArGrGrUrGrArUrArGdAdG” came in with a normalised inhibition (eCFP-eYFP dual reporter) of 63.1%.
For the substance “sense rCrUrCrArArGrArGrGrCrUrArArCrCrUrCrUrGdTdT / antisense rCrArGrArGrGrUrUrArGrCrCrUrCrUrUrGrArGdGdC”, the normalised inhibition (eCFP-eYFP dual reporter) was 52.3%.
In turn, “sense rCrUrCrArArGrArUrUrCrCrUrGrGrArGrArCrCdTdT / antisense rGrGrUrCrUrCrCrArGrGrArArUrCrUrUrGrArGdAdG” yielded a normalised inhibition (eCFP-eYFP dual reporter) of 64.6%.
Regarding “sense rCrUrCrCrUrGrUrGrArCrCrArArArCrUrGrCrAdTdT / antisense rUrGrCrArGrUrUrUrGrGrUrCrArCrArGrGrArGdTdG”, the normalised inhibition (eCFP-eYFP dual reporter) was 80.5%.
“sense rCrUrCrUrArCrGrUrCrUrCrUrArArGrUrGrCrAdTdT / antisense rUrGrCrArCrUrUrArGrArGrArCrGrUrArGrArGdAdG” gave a normalised inhibition (eCFP-eYFP dual reporter) of 68.3%.
With “sense rCrUrGrArGrGrArUrCrUrCrCrCrUrGrArUrUrCdTdT / antisense rGrArArUrCrArGrGrGrArGrArUrCrCrUrCrArGdGdG”, the normalised inhibition (eCFP-eYFP dual reporter) is 60.6%.
The same measure for “sense rCrUrGrArUrCrGrUrArCrCrArArGrCrArArGrAdTdT / antisense rUrCrUrUrGrCrUrUrGrGrUrArCrGrArUrCrArGdAdA”: 54.7%.
Substance “sense rCrUrGrGrArUrUrGrCrCrCrUrGrCrUrGrGrCrUdTdT / antisense rArGrCrCrArGrCrArGrGrGrCrArArUrCrCrArGdTdG” gave a normalised inhibition (eCFP-eYFP dual reporter) of 63.7%.
The same measure for “sense rCrUrGrUrCrGrGrCrArUrUrArUrGrCrCrArGrUdTdT / antisense rArCrUrGrGrCrArUrArArUrGrCrCrGrArCrArGdCdT”: 73%; for “sense rCrUrGrUrCrUrUrUrCrArArUrGrCrCrGrUrCrGdTdT / antisense rCrGrArCrGrGrCrArUrUrGrArArArGrArCrArGdGdA”: 47.4%; for “sense rCrUrUrCrUrArArArGrCrCrArGrGrGrArUrGrGdTdT / antisense rCrCrArUrCrCrCrUrGrGrCrUrUrUrArGrArArGdCdC”: 46.4%.
In the case of “sense rCrUrUrGrArGrArGrCrUrArCrArUrArUrArCrAdTdT / antisense rUrGrUrArUrArUrGrUrArGrCrUrCrUrCrArArGdGdG”, the normalised inhibition (eCFP-eYFP dual reporter) was 74.2%.
For “sense rCrUrUrGrCrCrArCrArGrUrUrCrCrCrCrArArCdTdT / antisense rGrUrUrGrGrGrGrArArCrUrGrUrGrGrCrArArGdTdC”, the normalised inhibition (eCFP-eYFP dual reporter) turned out to be 50.6%.
For “sense rCrUrUrUrCrArArUrGrCrCrGrUrCrGrArUrUrAdTdT / antisense rUrArArUrCrGrArCrGrGrCrArUrUrGrArArArGdAdC”, the normalised inhibition (eCFP-eYFP dual reporter) turned out to be 76.8%.
“sense rCrUrUrUrGrUrGrArUrCrUrCrCrUrGrGrArArAdTdT / antisense rUrUrUrCrCrArGrGrArGrArUrCrArCrArArArGdGdC”: the normalised inhibition (eCFP-eYFP dual reporter) came to 65.8%.
Take “sense rGrArArUrGrGrGrArArCrArUrUrGrCrUrGrGrCdTdT / antisense rGrCrCrArGrCrArArUrGrUrUrCrCrCrArUrUrCdCdT”: the normalised inhibition (eCFP-eYFP dual reporter) turned out to be 45.3%.
With “sense rGrArCrCrCrArGrArUrGrUrUrUrGrCrArUrCrUdTdT / antisense rArGrArUrGrCrArArArCrArUrCrUrGrGrGrUrCdTdC”, the normalised inhibition (eCFP-eYFP dual reporter) was 71.9%.
As to “sense rGrArCrUrGrArArGrGrArGrArArArArUrUrUrUdTdT / antisense rArArArArUrUrUrUrCrUrCrCrUrUrCrArGrUrCdGdT”, the normalised inhibition (eCFP-eYFP dual reporter) worked out at 90.8%.
As to “sense rGrArGrCrUrGrCrUrCrArCrArUrCrCrCrArGrCdTdT / antisense rGrCrUrGrGrGrArUrGrUrGrArGrCrArGrCrUrCdCdC”, the normalised inhibition (eCFP-eYFP dual reporter) was determined as 42.6%.
The substance “sense rGrArGrGrArUrGrGrCrUrCrUrCrGrGrArCrArUdTdT / antisense rArUrGrUrCrCrGrArGrArGrCrCrArUrCrCrUrCdCdC” registered a normalised inhibition (eCFP-eYFP dual reporter) of 55.9%.
“sense rGrArGrGrUrGrGrArUrGrArGrArGrGrCrCrArUdTdT / antisense rArUrGrGrCrCrUrCrUrCrArUrCrCrArCrCrUrCdAdG” came in with a normalised inhibition (eCFP-eYFP dual reporter) of 74.4%.
“sense rGrArUrCrCrUrArGrUrUrGrGrGrGrArGrCrUrGdTdT / antisense rCrArGrCrUrCrCrCrCrArArCrUrArGrGrArUrCdCdG”: the normalised inhibition (eCFP-eYFP dual reporter) is 66.6%.
Regarding “sense rGrArUrGrArGrArGrGrCrCrArUrGrCrCrGrGrAdTdT / antisense rUrCrCrGrGrCrArUrGrGrCrCrUrCrUrCrArUrCdCdA”, the normalised inhibition (eCFP-eYFP dual reporter) stood at 63%.
As for “sense rGrArUrGrGrUrGrArArGrArCrArCrUrCrCrUrGdTdT / antisense rCrArGrGrArGrUrGrUrCrUrUrCrArCrCrArUrCdCdT”, the normalised inhibition (eCFP-eYFP dual reporter) turned out to be 82.9%.
The same measure for “sense rGrCrArArUrArArGrGrArUrCrUrCrArArArGrUdTdT / antisense rArCrUrUrUrGrArGrArUrCrCrUrUrArUrUrGrCdTdG”: 66.2%; for “sense rGrCrArCrUrUrCrCrArUrArArGrCrCrUrGrArGdTdT / antisense rCrUrCrArGrGrCrUrUrArUrGrGrArArGrUrGrCdTdT”: 78.7%.
“sense rGrCrCrCrGrGrArArCrUrUrCrUrGrCrCrGrArUdTdT / antisense rArUrCrGrGrCrArGrArArGrUrUrCrCrGrGrGrCdTdC” displayed a normalised inhibition (eCFP-eYFP dual reporter) of 70.9%.
Take “sense rGrCrUrGrArArGrArGrGrCrUrGrCrGrGrGrCrCdTdT / antisense rGrGrCrCrCrGrCrArGrCrCrUrCrUrUrCrArGrCdTdT”: the normalised inhibition (eCFP-eYFP dual reporter) came out at 37.4%.
“sense rGrGrArArArArGrUrUrGrGrArArGrUrGrCrGrUdTdT / antisense rArCrGrCrArCrUrUrCrCrArArCrUrUrUrUrCrCdAdG”: the normalised inhibition (eCFP-eYFP dual reporter) was found to be 60.8%.
In the case of “sense rGrGrArCrUrGrGrArCrArCrGrGrArGrArCrCrGdTdT / antisense rCrGrGrUrCrUrCrCrGrUrGrUrCrCrArGrUrCrCdGdC”, the normalised inhibition (eCFP-eYFP dual reporter) was determined as 60.4%.
For “sense rGrGrArGrCrArArCrUrCrCrArCrCrArGrGrCrAdTdT / antisense rUrGrCrCrUrGrGrUrGrGrArGrUrUrGrCrUrCrCdAdG”, the normalised inhibition (eCFP-eYFP dual reporter) came to 62.1%.
Consider “sense rGrGrCrCrArGrCrCrArGrCrArArCrArArGrUrGdTdT / antisense rCrArCrUrUrGrUrUrGrCrUrGrGrCrUrGrGrCrCdCdA”, for which the normalised inhibition (eCFP-eYFP dual reporter) was found to be 73.7%.
On to “sense rGrGrCrUrArArCrCrUrCrUrGrCrUrUrUrGrUrGdTdT / antisense rCrArCrArArArGrCrArGrArGrGrUrUrArGrCrCdTdC”, for which the normalised inhibition (eCFP-eYFP dual reporter) is 70.2%.
With “sense rGrGrCrUrGrGrCrArUrUrCrArArGrArCrCrCrAdTdT / antisense rUrGrGrGrUrCrUrUrGrArArUrGrCrCrArGrCrCdCdT”, the normalised inhibition (eCFP-eYFP dual reporter) was 75.8%.
With “sense rGrGrGrArArArUrCrArGrCrCrUrUrArUrGrGrUdTdT / antisense rArCrCrArUrArArGrGrCrUrGrArUrUrUrCrCrCdCdT”, the normalised inhibition (eCFP-eYFP dual reporter) was 61.1%.
In turn, “sense rGrGrGrArGrCrCrArGrArGrArUrCrArCrCrUrCdTdT / antisense rGrArGrGrUrGrArUrCrUrCrUrGrGrCrUrCrCrCdAdA” had a normalised inhibition (eCFP-eYFP dual reporter) of 49.7%.
For “sense rGrGrGrCrArUrGrGrArUrGrArUrGrGrArArGrCdTdT / antisense rGrCrUrUrCrCrArUrCrArUrCrCrArUrGrCrCrCdTdT” the value was 54.4%; for “sense rGrGrUrGrCrCrGrCrUrCrCrCrArCrCrUrCrCrUdTdT / antisense rArGrGrArGrGrUrGrGrGrArGrCrGrGrCrArCrCdTdC”, 39%.
The same measure for “sense rGrUrGrCrCrArGrArArCrUrUrGrGrGrGrArArGdTdT / antisense rCrUrUrCrCrCrCrArArGrUrUrCrUrGrGrCrArCdTdC”: 41.9%.
With “sense rGrUrUrUrArGrArUrArArUrGrArCrCrArGrArGdTdT / antisense rCrUrCrUrGrGrUrCrArUrUrArUrCrUrArArArCdGdC”, the normalised inhibition (eCFP-eYFP dual reporter) amounted to 51.4%.
Turning to “sense rUrArUrGrArGrGrCrGrUrUrUrGrUrCrArUrCrCdTdT / antisense rGrGrArUrGrArCrArArArCrGrCrCrUrCrArUrAdAdT”, the normalised inhibition (eCFP-eYFP dual reporter) was 44.9%.
As for “sense rUrCrArCrUrGrCrCrArArCrCrCrArUrGrGrArUdTdT / antisense rArUrCrCrArUrGrGrGrUrUrGrGrCrArGrUrGrAdAdC”, the normalised inhibition (eCFP-eYFP dual reporter) was 57.8%.
“sense rUrCrArGrUrGrUrGrArUrGrArArGrArArGrArAdTdT / antisense rUrUrCrUrUrCrUrUrCrArUrCrArCrArCrUrGrAdAdC”: the normalised inhibition (eCFP-eYFP dual reporter) is 75.2%.
The same measure for “sense rUrCrCrCrCrUrUrUrGrCrArUrUrCrCrUrArCrGdTdT / antisense rCrGrUrArGrGrArArUrGrCrArArArGrGrGrGrAdGdC”: 44.7%.
The substance “sense rUrCrUrCrCrUrGrCrArUrUrUrCrUrUrArGrArUdTdT / antisense rArUrCrUrArArGrArArArUrGrCrArGrGrArGrAdGdA” gave a normalised inhibition (eCFP-eYFP dual reporter) of 51.3%.
For “sense rUrCrUrGrArUrGrUrArCrUrUrUrCrCrArCrUrGdTdT / antisense rCrArGrUrGrGrArArArGrUrArCrArUrCrArGrAdCdT” the value was 47.9%.
For “sense rUrCrUrUrGrArUrUrCrArGrArArCrGrUrArGrGdTdT / antisense rCrCrUrArCrGrUrUrCrUrGrArArUrCrArArGrAdAdG” the value was 29.1%; for “sense rUrCrUrUrUrCrArArUrGrCrCrGrUrCrGrArUrUdTdT / antisense rArArUrCrGrArCrGrGrCrArUrUrGrArArArGrAdCdA”, 52.7%.

The record behind these values is the OligoGym collection.
